# Source: patent US20230293630A1, “Coronavirus T Cell Epitopes and Uses Thereof” (priority 2020, published 2023)
# Like-named read-outs stand apart in the source and are kept apart here.
# Test system: SARS-CoV-2-specific CD4+ T cells (OX40+CD137+) in PBMC
# Assay type: cell-based, human
# [1] = CD4+ T cell epitopes identified by AIM assay, share of donors responding
# [2] = CD4+ T cell epitopes identified by AIM assay, sum of response per responding donor
# [3] = CD4+ T cell epitopes identified by AIM assay, total response
# [4] = CD4+ T cell epitopes identified by AIM assay, percent of tested donors responding
# [5] = CD4+ T cell epitopes identified by AIM assay, total response summed over donors
Sequence,Frequency of response (%) [1],Magnitude by # of responding donors [2],Sum of response [3],Frequency of response (%),Magnitude by # of responding donors,Sum of response,Frequency of response (%) [4],Sum of response [5]
FKDQVILLNKHIDAY,33%,446,1785,–,–,–,–,–
ITGGIAIAMACLVGL,17%,207,414,–,–,–,–,–
VTQNVLYENQKLIAN,14%,353,705,–,–,–,–,–
YREAACCHLAKALND,8%,109,109,–,–,–,–,–
KEITVATSRTLSYYK,54%,516,3615,–,–,–,–,–
CVDEAGSKSPIQYID,9%,327,327,–,–,–,–,–
NLYDKLVSSFLEMKS,8%,150,150,–,–,–,–,–
LYENQKLIANQFNSA,7%,195,195,–,–,–,–,–
FTINCQEPKLGSLVV,–,–,–,27%,167,502,–,–
TFTRSTNSRIKASMP,8%,120,120,–,–,–,–,–
LPFFSNVTWFHAIHV,9%,156,156,–,–,–,–,–
TRSMWSFNPETNILL,17%,205,410,–,–,–,–,–
QFAPSASAFFGMSRI,17%,191,381,–,–,–,–,–
TNILLNVPLHGTILT,25%,543,1628,–,–,–,–,–
SIVAGGIVAIVVTCL,9%,109,109,–,–,–,–,–
PRPPLNRNYVFTGYR,8%,101,101,–,–,–,–,–
NTVKSVGKFCLEASF,8%,113,113,–,–,–,–,–
PSGTWLTYTGAIKLD [SEQ ID NO 248],–,–,–,42%,517,2583,–,–
LGASQRVAGDSGFAA,15%,491,981,–,–,–,–,–
FIASFRLFARTRSMW,8%,353,353,–,–,–,–,–
ASAFFGMSRIGMEVT,8%,337,337,–,–,–,–,–
ELDKYFKNHTSPDVD,–,361,–,–,–,–,7%,361
ESDDYIATNGPLKVG,8%,133,133,–,–,–,–,–
MFTPLVPFWITIAYI,8%,602,602,–,–,–,–,–
GIVNNTVYDPLQPEL,7%,164,164,–,–,–,–,–
NVLFSTVFPPTSFGP,7%,109,109,–,–,–,–,–

Sequence,Frequency of response (%) [1],Magnitude by # of responding donors [2],Sum of response [3],Frequency of response (%),Magnitude by # of responding donors,Sum of response,Frequency of response (%) [4],Sum of response [5]
SSANNCTFEYVSQPF,–,–,–,27%,1426,4279,–,–
PRWYFYYLGTGPEAG,7%,750,750,–,–,–,–,–
LGDIAARDLICAQKF,8%,153,153,–,–,–,–,–
TNSRIKASMPTTIAK,8%,360,360,–,–,–,–,–
VNARLRAKHYVYIGD,8%,116,116,–,–,–,–,–
MKDLSPRWYFYYLGT,14%,2536,5072,–,–,–,–,–
YFTSDYYQLYSTQLS,8%,198,198,–,–,–,–,–
EELKKLLEQWNLVIG,13%,223,446,–,–,–,–,–
YADSFVIRGDEVRQI,8%,160,160,–,–,–,–,–
FLCWHTNCYDYCIPY,7%,209,209,–,–,–,–,–
LYLYALVYFLQSINF,21%,124,371,–,–,–,–,–
TPPIKDFGGFNFSQI,8%,421,421,–,–,–,–,–
RLWLCWKCRSKNPLL,7%,290,290,–,–,–,–,–
PCPIHFYSKWYIRVG,–,–,–,55%,491,2948,–,–
GMEVTPSGTWLTYTG,8%,380,380,–,–,–,–,–
VRIIMRLWLCWKCRS,14%,131,261,–,–,–,–,–
AGFIKQYGDCLGDIA,25%,817,2450,–,–,–,–,–
QMAYRFNGIGVTQNV,7%,160,160,–,–,–,–,–
ALLAVFQSASKIITL [SEQ ID NO 249],9%,178,178,–,–,–,–,–
NRNRFLYIIKLIFLW,13%,210,420,–,–,–,–,–
RENNRVVISSDVLVN,33%,170,170,–,–,–,–,–
EKSNIIRGWIFGTTL,9%,299,299,–,–,–,–,–
LNQLTGYKKPASREL,8%,168,168,–,–,–,–,–
TDYKHWPQIAQFAPS,8%,180,180,–,–,–,–,–
VSSQCVNLTTRTQLP,8%,274,274,–,–,–,–,–
HCANFNVLFSTVFPP,7%,211,211,–,–,–,–,–

Sequence,Frequency of response (%) [1],Magnitude by # of responding donors [2],Sum of response [3],Frequency of response (%),Magnitude by # of responding donors,Sum of response,Frequency of response (%) [4],Sum of response [5]
LVAAGLEAPFLYLYA,9%,133,133,–,–,–,–,–
RAMPNMLRIMASLVL,7%,144,144,–,–,–,–,–
EDFLEYHDVRVVLDF,18%,571,1141,–,–,–,–,–
IPFAMQMAYRFNGIG,18%,187,373,–,–,–,–,–
DVFHLYLQYIRKLHD,7%,247,247,–,–,–,–,–
LPQGFSALEPLVDLP,18%,418,836,–,–,–,–,–
AQYTSALLAGTITSG,–,336,–,–,–,–,9%,336
SLLIVNNATNVVIKV,–,164,–,–,–,–,9%,164
YSRYRIGNYKLNTDH,15%,276,551,–,–,–,–,–
LVYFLQSINFVRIIM [SEQ ID NO 251],–,218,–,–,–,–,7%,218
QELGKYEQYIKWPWY,8%,768,768,–,–,–,–,–
EFVFKNIDGYFKIYS,18%,336,672,–,–,–,–,–
GKQGNFKNLREFVFK,9%,129,129,–,–,–,–,–
CEFQFCNDPFLGVYY,–,359,–,–,–,–,27%,1077
RYLALYNKYKYFSGA,15%,708,1415,–,–,–,–,–
FYSKWYIRVGARKSA [SEQ ID NO 255],–,–,–,55%,468,2805,–,–
CPFGEVFNATRFASV,–,108,–,–,–,–,9%,108
TITSGWTFGAGAALQ,9%,164,164,–,–,–,–,–
LTQHGKEDLKFPRGQ,8%,127,127,–,–,–,–,–
KNTQEVFAQVKQIYK,8%,125,125,–,–,–,–,–
VIRGDEVRQIAPGQT,9%,180,180,–,–,–,–,–
GSSGVVNPVMEPIYD,7%,186,186,–,–,–,–,–
NIDGYFKIYSKHTPI,45%,295,1475,–,–,–,–,–
FTGYRVTKNSKVQIG,8%,116,116,–,–,–,–,–
